# Measurements: publication PMC9404989, “Design and Evaluation of Short Bovine Lactoferrin-Derived Antimicrobial Peptides against Multidrug-Resistant Enterococcus faecium” (Antibiotics, 2022)
# No end group written: not given here.
# How the values were obtained:
# [1] = HPLC retention time on C18 reverse-phase column; format: physicochemical
# Description: Table 1 Physical parameters and the minimal inhibitory concentration (µg/mL) of designed peptides against E. faecium. | column: rT ^f (min)
# [2] = system: drug-resistant E. faecium clinical isolates; format: cell-based, Enterococcus faecium; conditions: strains D14, D24, D25, D29, C68 and WC176
# Experimental: (§1) To determine the MICs of peptides, we used the broth microdilution method described by the Clinical and Laboratory Standards Institute. We made serial dilutions of 10× concentration (10 µL) for each peptide in duplicates in 96-well plates (Cat No. 3595, Corning, New York, NY, USA). We added 90 µL of logarithmic-phase bacteria at 5 × 10^5 CFU/mL (in BHI media) to the peptides and then incubated the plates at 37 °C for 18 h. We measured the OD600 absorbance readings using the Spectra Max i3x spectrophotometer (Molecular Devices, San Jose, CA, USA) and determined the MIC as the peptide concentration that inhibits the growth of bacteria.
# S. aureus MW2 = experiment: microbe, parasite or virus in culture; format: cell-based, Staphylococcus aureus; conditions: MW2, 18 h
# Experimental: as §1
# [3] = system: E. faecium strain C68 persister and exponential cells; experiment: SYTOX Green membrane permeability assay; format: cell-based, Enterococcus faecium; conditions: for SYTOX membrane permeabilization of exponential cells: 16 µg/mL; for SYTOX membrane permeabilization of persister cells: peptides at 16 µg/mL, fluorescence, 1 h
# Experimental: We generated E. faecium strain C68 persister cells (described in the above section) and diluted them in PBS to OD600 = 0.2. We added SYTOX Green (Molecular Probes, Life Technologies, Eugene, OR, USA) to the diluted persister suspension to a final concentration of 5 μM and incubated them for 30 min at room temperature in the dark. We added 90 µL of the dye/bacteria mixture to 10 μL of serially diluted 10× peptide concentration in a 96-well black, clear-bottom plate (Cat No. 3904, Corning, NY, USA) and recorded fluorescence on a SpectraMax i3x (Molecular Devices, San Jose, CA, USA) with excitation and emission wavelengths of 485 nm and 525 nm, respectively, for 1 h at room temperature. For comparison, we also conducted membrane permeability assays using exponential cells and followed similar protocol as described for persister cells.
# [4] = system: E. faecium E007 established biofilms; format: cell-based, Enterococcus faecium; conditions: for concentration killing 50% of live bacteria cells in established biofilms: strain E007, 24 h established biofilms, XTT; for established biomass disrupted: strain E007, at 32 µg/mL; for MBEC50: strain E007, biomass by CV
# [5] = system: E. faecium strain C68 persister cells; experiment: Persister cell time-kill assay; format: cell-based, Enterococcus faecium
# Experimental: For the generation of antibiotic-induced persister cells, we followed an established protocol. In brief, 25 mL of E. faecium strain C68 culture was grown to the stationary phase and then treated with gentamicin at 400 μg/mL for 5 h. We then disposed of the antibiotic-containing media and regrew the bacteria for another 18 h in fresh media. To produce stable persister cells, we repeated the cycle of antibiotic exposure and regrowth five times. The bacteria culture was then washed with the same volume of phosphate-buffered saline (PBS) 3× times and adjusted to 1 × 10^7 CFU/mL in PBS. For killing kinetics of the persister cells, we added 1 mL of the cell suspension to the wells of a 2 mL deep well assay block (Cat No. 3960, Corning, NY, USA) containing 10× MICs of 5L and 6L and incubated them at 37 °C, with shaking at 225 rpm. At specific times (0, 15, 30, 60, and 120 min), we collected 20 μL samples, diluted them serially, and then plated them on tryptic soy agar (TSA) (BD Difco, Franklin Lakes, NJ, USA) plates for 18 h at 37 °C for colony counting. We performed the experiments in duplicate. As a comparison, we prepared the exponential cells of E. faecium strain C68 in PBS and analyzed their killing kinetics in the same manner as described for persister cells.
# E. faecalis V583 = experiment: microbe, parasite or virus in culture; format: cell-based; conditions: V583, 18 h
# Experimental: as §1
# E. faecalis MMH594 = experiment: microbe, parasite or virus in culture; format: cell-based; conditions: MMH594, 18 h
# Experimental: as §1
# E. faecalis OG1RF = experiment: MIC assay, E. faecalis OG1RF; format: cell-based; conditions: rifampin and fusidic acid resistant
# Experimental: as §1
# [6] = system: biofilm genes ace, esp, ebpA, ebpC of E. faecium strain C68; experiment: qPCR of genes associated with biofilm formation; format: cell-based, Enterococcus faecium; conditions: 0.5× MIC, 30 min, real-time PCR
# Experimental: For the qPCR of genes associated with biofilm formation, we followed an established protocol for RNA isolation and quantitative PCR reactions with minor modifications. We prepared exponential cultures of E. faecium strain C68 adjusted to an OD600 = 0.4 in BHI media from overnight grown cultures. After treating 10 mL of bacterial culture with 0.5× MICs of 5L and 6L for 30 min, we extracted RNA using the RNeasy mini kit (Qiagen, Hilden, Germany) according to the manufacturer’s instructions. Using the primers listed in Supplementary Table S2, we performed cDNA synthesis and quantitative reverse transcription (RT)-PCR as recommended by the manufacturer (Bio-Rad, Hercules, CA, USA). Our qPCR cycling conditions were: 95 °C for 30 s; 40 cycles at 95 °C for 5 s; 55 °C for 30 s; and finished with a melt curve analysis from 65 to 95 °C.
# E. faecium strain C68 = experiment: ATP release assay (luciferase); format: cell-based, Enterococcus faecium; conditions: 32 µg/mL, 37 °C, 30 min
# Experimental: To determine the ATP leakage potential of the peptides, we employed a luciferase-based assay detailed in [32]. In brief, we washed the exponential phase of E. faecium strain C68 bacteria three times with PBS (pH 7.4) and adjusted it to OD600 = 0.4 in PBS. Following treatment of the bacteria with 32 µg/mL of 5L and 6L peptides at 37 °C for 30 min, we centrifuged the cells at 14,000 rpm for 5 min. We transferred 50 µL of the supernatant of each sample to each well of black, clear-bottom, 96-well plates (Cat No. 3904, Corning, New York, NY, USA) containing 50 µL of BacTiter-Glo reagent (Promega, Madison, WI, USA) and measured plate luminescence after 5 min of incubation at room temperature in the dark with a SpectraMax i3x reader (Molecular Devices, San Jose, CA, USA).
Substance,rT (HPLC retention time) [1] [min],MIC range against clinical isolates of E. faecium [2] [µg/mL],MIC S. aureus MW2 (S. aureus MW2) [µg/mL],SYTOX membrane permeabilization of exponential cells [3],SYTOX membrane permeabilization of persister cells [3],concentration killing 50% of live bacteria cells in established biofilms [4] [µg/mL],established biomass disrupted [4] [%],MBEC50 [4] [µg/mL],"time to eliminate all persister cells ([5]; 40 µg/mL, 1 × 10^7 persister cells) [min]",MIC E. faecalis V583 (E. faecalis V583) [µg/mL],MIC E. faecalis MMH594 (E. faecalis MMH594) [µg/mL],MIC E. faecalis OG1RF (E. faecalis OG1RF) [µg/mL],downregulation of ace expression [6] [folds],downregulation of ebpC expression [6] [fold],ATP leakage (luminescence) (E. faecium strain C68),"reduction of viable persister cells ([5]; 10× MIC (40 µg/mL), 1 × 10^7 CFU, PBS, within 120 min) [logs]",downregulation of ebpA expression [6] [fold],downregulation of esp expression [6] [fold]
RRWLWRLRWLWR-NH2 [Peptide 6L],18.603,4 to 16,32,enhanced membrane permeabilization,time-dependent fluorescent increment,8,75,8,≤ 60,> 32,> 32,> 32,4,2,increased luminescence levels,–,–,–
RRWLWLRRWLWR-NH2 [Peptide 5L],17.522,4 to 16,> 32,enhanced membrane permeabilization,time-dependent fluorescent increment,8,75,10,–,> 32,> 32,> 32,8,2,increased luminescence levels,3,2,4
